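Cultured in 96-well plates, cells were exposed to test compound for 48 hours across five concentrations. Here, GI50 denotes the concentration required for 50% inhibition of growth.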 Active and inactive are the calls of the source. No stated cut-off is given here; in the data, active = GI50 up to about 1.1 µM and inactive = higher.
How the values were obtained:
Assay in all cases: NCI anticancer screen, dose series, 48 h
[1] = tested on: Malme-3M
[2] = tested on: T47D
[3] = tested on: NCI-H23
[4] = tested on: HL-60
[5] = tested on: SK-OV-3
[6] = tested on: SF-268
[7] = tested on: OVCAR-4
[8] = tested on: HOP-62
[9] = tested on: DU-145
[10] = tested on: SK-MEL-2
[11] = tested on: UACC-257
[12] = tested on: SF-539
[13] = tested on: TK-10
[14] = tested on: MOLT-4
[15] = tested on: Hs-578T
[16] = tested on: MDA-MB-435
[17] = tested on: DMS-114
[18] = tested on: UO-31
[19] = tested on: A498
[20] = tested on: SR

| SMILES | GI50 [1] | GI50 [2] | GI50 [3] | GI50 [4] | GI50 [5] | GI50 [6] | GI50 [7] | GI50 [8] | GI50 [9] | GI50 [10] | GI50 [11] | GI50 [12] | GI50 [13] | GI50 [14] | GI50 [15] | GI50 [16] | GI50 [17] | GI50 [18] | GI50 [19] | GI50 [20] |
| --- | --- | --- | --- | --- | --- | --- | --- | --- | --- | --- | --- | --- | --- | --- | --- | --- | --- | --- | --- | --- |
| COC1=C(C)C(=O)C2=C(C1=O)C1C3CC4=C(C(=O)C(OC)=C(C)C4=O)C(CNC(=O)C(C)=O)N3C(C#N)C(C2)N1C (stereo not drawn) | 0.00678 µM (active) | < 0.001 µM (active) | 0.00385 µM (active) | 0.00328 µM (active) | 0.0741 µM (active) | 0.014 µM (active) | 0.0405 µM (active) | 0.0215 µM (active) | 0.00545 µM (active) | 0.00226 µM (active) | 0.00464 µM (active) | 0.00891 µM (active) | 0.0328 µM (active) | 0.00838 µM (active) | < 0.001 µM (active) | 0.0016 µM (active) | 0.00162 µM (active) | – | – | – |
| COc1cccc2c1c1ccc3c(c1n2C)C(=O)C=CC3=O | 13.9 µM (inactive) | – | 16.1 µM (inactive) | 1.51 µM (inactive) | > 100 µM (inactive) | 17.8 µM (inactive) | 17.5 µM (inactive) | > 100 µM (inactive) | – | 16.9 µM (inactive) | 14.9 µM (inactive) | 16.6 µM (inactive) | 18.9 µM (inactive) | 2.64 µM (inactive) | – | – | 20 µM (inactive) | 18.6 µM (inactive) | > 100 µM (inactive) | 2.4 µM (inactive) |
| O=C(CCC(=O)Nc1ccc(Cl)c(Cl)c1)Cc1nc2ccccc2o1 | > 100 µM (inactive) | – | > 100 µM (inactive) | > 100 µM (inactive) | > 100 µM (inactive) | > 100 µM (inactive) | > 100 µM (inactive) | > 100 µM (inactive) | – | > 100 µM (inactive) | > 100 µM (inactive) | > 100 µM (inactive) | > 100 µM (inactive) | > 100 µM (inactive) | – | – | > 100 µM (inactive) | > 100 µM (inactive) | > 100 µM (inactive) | > 100 µM (inactive) |
| C=CC[C@@]1(C#N)C[C@H](C[C@]2(C#N)C[C@H](CCl)OC(C)(C)O2)OC(C)(C)O1 | > 100 µM (inactive) | – | > 100 µM (inactive) | 36 µM (inactive) | > 100 µM (inactive) | > 100 µM (inactive) | > 100 µM (inactive) | > 100 µM (inactive) | – | > 100 µM (inactive) | 94.8 µM (inactive) | > 100 µM (inactive) | > 100 µM (inactive) | 72.8 µM (inactive) | – | – | 41.2 µM (inactive) | 43 µM (inactive) | > 100 µM (inactive) | 60.7 µM (inactive) |
| CCN(CCCl)CCCCNc1c2ccccc2nc2ccc(OC)cc12 | 0.957 µM (active) | 0.191 µM (active) | 0.276 µM (active) | 0.0929 µM (active) | 1.24 µM (inactive) | 0.171 µM (active) | 0.7 µM (active) | 0.439 µM (active) | 0.336 µM (active) | 0.662 µM (active) | 2.67 µM (inactive) | 0.653 µM (active) | 0.92 µM (active) | < 0.01 µM (active) | 1.22 µM (inactive) | 0.427 µM (active) | 0.323 µM (active) | 1.11 µM (active) | 0.379 µM (active) | < 0.01 µM (active) |
| CC(C)N(C(=O)C12C3C4C5C3C1(C(=O)N(C(C)C)C(C)C)C5(C#N)C42)C(C)C (stereo not drawn) | > 100 µM (inactive) | – | > 100 µM (inactive) | 21.1 µM (inactive) | > 100 µM (inactive) | > 100 µM (inactive) | > 100 µM (inactive) | > 100 µM (inactive) | – | > 100 µM (inactive) | > 100 µM (inactive) | > 100 µM (inactive) | > 100 µM (inactive) | > 100 µM (inactive) | – | – | > 100 µM (inactive) | > 100 µM (inactive) | > 100 µM (inactive) | 17.9 µM (inactive) |
| COC(=O)/C([Se]c1c(C)cc(C)cc1C)=C(\[Se]c1c(C)cc(C)cc1C)C(=O)OC | > 100 µM (inactive) | – | > 100 µM (inactive) | > 100 µM (inactive) | > 100 µM (inactive) | > 100 µM (inactive) | > 100 µM (inactive) | > 100 µM (inactive) | – | > 100 µM (inactive) | > 100 µM (inactive) | > 10 µM (inactive) | > 100 µM (inactive) | > 100 µM (inactive) | – | – | > 100 µM (inactive) | > 100 µM (inactive) | > 100 µM (inactive) | > 100 µM (inactive) |
| [O-][N+]1=C(c2ccccc2)COc2ccccc21 | > 100 µM (inactive) | – | > 100 µM (inactive) | > 100 µM (inactive) | > 100 µM (inactive) | > 100 µM (inactive) | > 100 µM (inactive) | > 100 µM (inactive) | – | > 100 µM (inactive) | > 100 µM (inactive) | > 100 µM (inactive) | > 100 µM (inactive) | > 100 µM (inactive) | – | – | > 100 µM (inactive) | > 100 µM (inactive) | > 100 µM (inactive) | 47.5 µM (inactive) |
